# Data taken from patent US20120172503A1, “AMORPHOUS SOLID MODIFICATION OF BIS(2,4-DICUMYLPHENYL) PENTAERYTHRITOL DIPHOSPHITE” (priority 2002, published 2012).
# Experiment: Dissolving rate and solubility in organic materials versus crystalline form
# Conditions: in polymers and lubricants; compared to the prior art crystalline form
substance,measurement,value
"bis(2,4-dicumylphenyl)pentaerythritol diphosphite [Example 1]",rate of dissolving in organic materials,faster rate of dissolving
same,solubility in organic materials,better solubility
